According to ChEMBL document CHEMBL4507327 (2021):
Blank lines part the entries; values can stand above or below the molecule they belong to.

Legend:
[1] = target: MAP/microtubule affinity-regulating kinase 3 (Homo sapiens, UniProt P27448); assay: MARK3(MAR3LGO5) Takeda global kinase panel
[2] = target: Cysteinyl leukotriene receptor 1 (Homo sapiens) (UniProt Q9Y271); assay: Inhibition of Leukotriene, Cysteinyl CysLT1 at 10 µM in the Eurofins-Panlabs radioligand binding assay (Eurofins_assay_250460); parameters: ligand concentration 0.3 nM, non-specific ligand with concentration 0.3 µM Leukotriene D4, incubation time 30 min, incubation temperature 25 °C; conditions: Compound concentration 10.0 uM
[3] = target: Sigma non-opioid intracellular receptor 1 (Homo sapiens) (UniProt Q99720); assay: Sigma 1 Eurofins-Panlabs radioligand binding assay; parameters: ligand concentration 15 nM; conditions: Compound concentration 10.0 uM
[4] = target: Sodium-dependent serotonin transporter (Homo sapiens) (UniProt P31645); conditions: Compound concentration 10.0 uM
[5] = target: Vascular endothelial growth factor receptor 3 (Homo sapiens, UniProt P35916); assay: FLT4(FLT4LGY1) Takeda global kinase panel
[6] = target: Homeodomain-interacting protein kinase 1 (Homo sapiens, UniProt Q86Z02); assay: HIPK1(HIP1LGF1) Takeda global kinase panel
[7] = target: Bromodomain testis-specific protein (Homo sapiens, UniProt Q58F21); assay: BRDT(BRDTLGRC) Takeda global kinase panel
[8] = target: Serine/threonine-protein kinase tousled-like 1 (Homo sapiens, UniProt Q9UKI8); assay: TLK1(TLK1LGP1) Takeda global kinase panel
[9] = target: STE20-related kinase adapter protein alpha (Homo sapiens, UniProt Q7RTN6); assay: STLK5(STRAPHD1) Takeda global kinase panel
[10] = target: Peripheral plasma membrane protein CASK (Homo sapiens, UniProt O14936); assay: CASK(CASKLGY1) Takeda global kinase panel
[11] = target: NUAK family SNF1-like kinase 1 (Homo sapiens, UniProt O60285); assay: NuaK1(NUA1LGF5) Takeda global kinase panel
[12] = target: Serine/threonine-protein kinase Nek3 (Homo sapiens, UniProt P51956); assay: Nek3(NEK3LGRI) Takeda global kinase panel
Sequence of Serine/threonine-protein kinase Nek3 (P51956 whole entry): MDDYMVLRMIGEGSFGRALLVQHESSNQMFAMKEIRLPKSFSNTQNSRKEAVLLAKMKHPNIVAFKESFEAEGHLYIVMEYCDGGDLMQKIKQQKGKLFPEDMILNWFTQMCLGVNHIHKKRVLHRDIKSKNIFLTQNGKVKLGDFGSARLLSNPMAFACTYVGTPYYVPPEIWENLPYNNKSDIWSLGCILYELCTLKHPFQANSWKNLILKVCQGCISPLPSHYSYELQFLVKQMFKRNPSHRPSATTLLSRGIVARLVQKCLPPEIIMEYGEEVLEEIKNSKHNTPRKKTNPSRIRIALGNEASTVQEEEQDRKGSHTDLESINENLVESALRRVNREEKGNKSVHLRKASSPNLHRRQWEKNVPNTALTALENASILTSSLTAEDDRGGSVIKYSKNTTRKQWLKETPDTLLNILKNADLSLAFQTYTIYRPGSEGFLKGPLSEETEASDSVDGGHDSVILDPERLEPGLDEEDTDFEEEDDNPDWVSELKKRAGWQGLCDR

[13] = target: Protein kinase C beta type (Homo sapiens, UniProt P05771); assay: PKCbeta(PRKBPHY3) Takeda global kinase panel
[14] = target: Calcium/calmodulin-dependent protein kinase type 1G (Homo sapiens, UniProt Q96NX5); assay: CaMK1gamma(CA1GLGN1) Takeda global kinase panel
[15] = target: Ribosomal protein S6 kinase beta-1 (Homo sapiens, UniProt P23443); assay: p70S6K(R6B1CGF1) Takeda global kinase panel
[16] = target: Receptor tyrosine-protein kinase erbB-4 (Homo sapiens, UniProt Q15303); assay: HER4(ERB4CGF1) Takeda global kinase panel
Sequence of Receptor tyrosine-protein kinase erbB-4 (Q15303 whole entry): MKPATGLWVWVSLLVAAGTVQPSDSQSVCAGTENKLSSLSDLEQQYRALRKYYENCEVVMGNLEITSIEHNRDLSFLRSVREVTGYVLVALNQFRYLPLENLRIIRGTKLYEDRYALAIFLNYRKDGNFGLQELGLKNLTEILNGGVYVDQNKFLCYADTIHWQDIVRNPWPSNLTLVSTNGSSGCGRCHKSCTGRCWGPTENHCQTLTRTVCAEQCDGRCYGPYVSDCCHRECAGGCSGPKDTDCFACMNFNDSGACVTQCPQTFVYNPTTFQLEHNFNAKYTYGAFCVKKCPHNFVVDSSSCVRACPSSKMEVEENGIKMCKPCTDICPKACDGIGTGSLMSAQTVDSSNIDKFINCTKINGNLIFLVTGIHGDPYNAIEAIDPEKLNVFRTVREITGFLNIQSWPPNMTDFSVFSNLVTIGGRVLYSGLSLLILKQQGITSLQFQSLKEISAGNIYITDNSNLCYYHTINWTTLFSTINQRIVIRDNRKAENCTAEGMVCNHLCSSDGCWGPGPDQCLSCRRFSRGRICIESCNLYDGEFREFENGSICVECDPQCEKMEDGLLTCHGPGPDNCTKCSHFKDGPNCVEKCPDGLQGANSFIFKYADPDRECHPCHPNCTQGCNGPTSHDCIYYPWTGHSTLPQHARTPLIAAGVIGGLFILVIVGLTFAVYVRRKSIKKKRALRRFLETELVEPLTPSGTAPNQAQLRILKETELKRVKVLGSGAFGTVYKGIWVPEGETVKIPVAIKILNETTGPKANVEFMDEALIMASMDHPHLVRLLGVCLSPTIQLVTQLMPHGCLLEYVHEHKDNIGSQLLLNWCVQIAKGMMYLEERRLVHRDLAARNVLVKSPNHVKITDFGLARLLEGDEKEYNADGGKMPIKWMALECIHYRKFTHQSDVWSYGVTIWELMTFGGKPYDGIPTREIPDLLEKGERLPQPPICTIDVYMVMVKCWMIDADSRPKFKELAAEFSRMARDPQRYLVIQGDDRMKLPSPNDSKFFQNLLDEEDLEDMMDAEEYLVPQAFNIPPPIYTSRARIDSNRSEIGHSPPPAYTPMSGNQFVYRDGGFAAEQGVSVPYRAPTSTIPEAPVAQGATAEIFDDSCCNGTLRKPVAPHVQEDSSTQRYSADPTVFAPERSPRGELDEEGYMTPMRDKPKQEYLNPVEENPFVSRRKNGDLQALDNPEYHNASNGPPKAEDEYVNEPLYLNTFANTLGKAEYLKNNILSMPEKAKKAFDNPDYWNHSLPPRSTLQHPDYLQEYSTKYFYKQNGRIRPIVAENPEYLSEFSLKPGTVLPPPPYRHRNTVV

[17] = target: Protein kinase C eta type (Homo sapiens, UniProt P24723); assay: PKCeta(PRKHLGRA) Takeda global kinase panel
[18] = target: Mitogen-activated protein kinase 11 (Homo sapiens, UniProt Q15759); assay: p38beta(MP11LGI1) Takeda global kinase panel
Sequence of Mitogen-activated protein kinase 11 (Q15759 whole entry): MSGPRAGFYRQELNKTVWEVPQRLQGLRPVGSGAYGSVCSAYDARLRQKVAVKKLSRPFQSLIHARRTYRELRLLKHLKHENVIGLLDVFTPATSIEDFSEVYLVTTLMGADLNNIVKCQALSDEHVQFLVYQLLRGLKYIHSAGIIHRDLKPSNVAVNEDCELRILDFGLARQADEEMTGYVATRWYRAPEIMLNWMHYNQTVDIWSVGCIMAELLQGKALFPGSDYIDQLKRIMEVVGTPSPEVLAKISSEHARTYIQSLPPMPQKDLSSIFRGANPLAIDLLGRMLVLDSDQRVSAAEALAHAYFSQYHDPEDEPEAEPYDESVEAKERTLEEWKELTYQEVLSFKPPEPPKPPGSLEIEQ

[19] = target: Testis-specific serine/threonine-protein kinase 1 (Homo sapiens, UniProt Q9BXA7); assay: TSSK1(TS1BLGP1) Takeda global kinase panel
[20] = target: Dual specificity protein kinase CLK4 (Homo sapiens, UniProt Q9HAZ1); assay: CLK4(CLK4IGF1) Takeda global kinase panel
[21] = species: Mus musculus; assay: Inhibition of Phorbol Ester at 10 µM in the Eurofins-Panlabs radioligand binding assay (Eurofins_assay_264500); parameters: ligand concentration 3 nM; conditions: Compound concentration 10.0 uM
[22] = target: Citron Rho-interacting kinase (Homo sapiens, UniProt O14578); assay: CRIK(CIT1LGY1) Takeda global kinase panel
[23] = target: Serine/threonine-protein kinase Sgk2 (Homo sapiens, UniProt Q9HBY8); assay: SGK2(SGK2LGE5) Takeda global kinase panel
[24] = target: NT-3 growth factor receptor (Homo sapiens, UniProt Q16288); assay: TRKC(NTR3LGN1) Takeda global kinase panel
[25] = target: NUAK family SNF1-like kinase 2 (Homo sapiens, UniProt Q9H093); assay: NuaK2(NUA2LHY1) Takeda global kinase panel
[26] = target: Tyrosine-protein kinase ABL1 (Homo sapiens, UniProt P00519); assay: Abl(ABL1IHY1) Takeda global kinase panel
[27] = target: D(1A) dopamine receptor (Homo sapiens) (UniProt P21728); conditions: Compound concentration 10.0 uM
Sequence of D(1A) dopamine receptor (Homo sapiens) (P21728 whole entry): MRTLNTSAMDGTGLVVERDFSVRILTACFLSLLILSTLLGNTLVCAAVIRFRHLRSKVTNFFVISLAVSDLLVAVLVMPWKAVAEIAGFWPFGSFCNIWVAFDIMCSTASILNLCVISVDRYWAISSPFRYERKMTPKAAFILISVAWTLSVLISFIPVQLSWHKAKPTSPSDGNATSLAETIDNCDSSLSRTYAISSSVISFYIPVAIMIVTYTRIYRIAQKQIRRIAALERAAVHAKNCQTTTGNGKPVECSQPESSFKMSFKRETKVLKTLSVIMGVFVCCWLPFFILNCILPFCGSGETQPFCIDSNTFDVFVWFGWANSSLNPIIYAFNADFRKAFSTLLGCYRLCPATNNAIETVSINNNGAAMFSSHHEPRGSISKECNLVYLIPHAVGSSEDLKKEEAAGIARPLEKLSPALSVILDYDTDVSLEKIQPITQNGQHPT

[28] = target: Cyclin-dependent kinase 4 (Homo sapiens, UniProt P11802); assay: CDK4(CDK4CGS1) Takeda global kinase panel
[29] = target: Tyrosine-protein kinase JAK3 (Homo sapiens, UniProt P52333); assay: JAK3(JAK3LGRG) Takeda global kinase panel
[30] = target: Serine/threonine-protein kinase MARK1 (Homo sapiens, UniProt Q9P0L2); assay: MARK1(MAR1PHY1) Takeda global kinase panel
[31] = target: Serine/threonine-protein kinase Nek11 (Homo sapiens, UniProt Q8NG66); assay: Nek11(NE11LGRI) Takeda global kinase panel
[32] = target: Serine/threonine-protein kinase 3 (Homo sapiens, UniProt Q13188); assay: MST2(STK3LGF1) Takeda global kinase panel
Sequence of Serine/threonine-protein kinase 3 (Q13188 whole entry): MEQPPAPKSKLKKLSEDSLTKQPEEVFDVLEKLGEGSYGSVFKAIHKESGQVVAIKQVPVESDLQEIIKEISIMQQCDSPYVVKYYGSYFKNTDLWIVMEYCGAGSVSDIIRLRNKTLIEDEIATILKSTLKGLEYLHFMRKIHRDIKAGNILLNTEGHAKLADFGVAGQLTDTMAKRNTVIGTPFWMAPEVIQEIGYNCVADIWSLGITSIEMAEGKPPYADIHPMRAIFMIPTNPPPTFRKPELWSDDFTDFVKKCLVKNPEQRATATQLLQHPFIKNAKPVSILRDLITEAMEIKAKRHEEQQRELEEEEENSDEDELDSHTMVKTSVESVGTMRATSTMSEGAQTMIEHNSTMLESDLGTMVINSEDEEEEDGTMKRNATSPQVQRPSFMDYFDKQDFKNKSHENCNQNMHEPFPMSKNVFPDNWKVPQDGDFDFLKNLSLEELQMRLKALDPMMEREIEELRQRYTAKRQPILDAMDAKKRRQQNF

[33] = target: Serine/threonine-protein kinase DCLK3 (Homo sapiens, UniProt Q9C098); assay: DCAMKL3(DCL3LGP1) Takeda global kinase panel
[34] = target: Serine/threonine-protein kinase PLK3 (Homo sapiens, UniProt Q9H4B4); assay: PLK3(PLK3PHY1) Takeda global kinase panel
[35] = target: Maternal embryonic leucine zipper kinase (Homo sapiens, UniProt Q14680); assay: MELK(MELKLGF1) Takeda global kinase panel
[36] = target: Vascular endothelial growth factor receptor 1 (Homo sapiens, UniProt P17948); assay: FLT1(FLT1LGC5) Takeda global kinase panel
[37] = target: Mitogen-activated protein kinase kinase kinase 12 (Homo sapiens, UniProt Q12852); assay: DLK(M312CGY1) Takeda global kinase panel
Sequence of Mitogen-activated protein kinase kinase kinase 12 (Q12852 whole entry): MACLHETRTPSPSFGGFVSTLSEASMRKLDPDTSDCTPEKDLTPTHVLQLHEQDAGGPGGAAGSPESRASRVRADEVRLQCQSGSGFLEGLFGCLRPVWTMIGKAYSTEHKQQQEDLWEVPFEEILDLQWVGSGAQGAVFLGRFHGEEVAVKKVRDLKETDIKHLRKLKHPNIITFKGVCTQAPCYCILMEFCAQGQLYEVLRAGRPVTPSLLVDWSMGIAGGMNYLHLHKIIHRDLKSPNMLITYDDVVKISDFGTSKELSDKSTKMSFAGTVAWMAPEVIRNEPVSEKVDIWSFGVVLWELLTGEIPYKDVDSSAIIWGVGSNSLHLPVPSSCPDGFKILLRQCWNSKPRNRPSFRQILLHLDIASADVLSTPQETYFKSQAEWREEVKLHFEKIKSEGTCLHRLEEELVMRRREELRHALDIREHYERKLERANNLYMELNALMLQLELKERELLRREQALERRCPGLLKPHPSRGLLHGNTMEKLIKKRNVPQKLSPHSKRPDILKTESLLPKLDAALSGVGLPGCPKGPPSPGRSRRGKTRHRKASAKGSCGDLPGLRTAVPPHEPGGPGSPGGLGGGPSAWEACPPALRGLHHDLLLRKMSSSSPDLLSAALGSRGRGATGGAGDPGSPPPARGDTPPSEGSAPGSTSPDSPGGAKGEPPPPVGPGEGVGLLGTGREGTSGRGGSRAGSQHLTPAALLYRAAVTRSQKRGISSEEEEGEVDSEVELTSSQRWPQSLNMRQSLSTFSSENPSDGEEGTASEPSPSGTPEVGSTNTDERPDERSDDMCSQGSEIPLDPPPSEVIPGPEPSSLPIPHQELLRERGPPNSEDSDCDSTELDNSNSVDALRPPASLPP

[38] = target: GABA-A receptor; anion channel (Rattus norvegicus) (UniProt O09028+P15431+P18506+P18508+P19969+P20236+P23574+P23576+P28471+P28473+P30191+P62813+P63079+P63138+Q91ZM7+Q9ES14); conditions: Compound concentration 10.0 uM
[39] = target: Cyclin-dependent kinase 18 (Homo sapiens, UniProt Q07002); assay: PCTAIRE3(CD18SGS1) Takeda global kinase panel
[40] = target: Cyclin-dependent kinase 2 (Homo sapiens, UniProt P24941); assay: CDK2(CDK2CGS1) Takeda global kinase panel
[41] = target: Glycogen synthase kinase-3 beta (Homo sapiens, UniProt P49841); assay: GSK3beta(GS3BLGM1) Takeda global kinase panel
Sequence of Glycogen synthase kinase-3 beta (P49841 whole entry): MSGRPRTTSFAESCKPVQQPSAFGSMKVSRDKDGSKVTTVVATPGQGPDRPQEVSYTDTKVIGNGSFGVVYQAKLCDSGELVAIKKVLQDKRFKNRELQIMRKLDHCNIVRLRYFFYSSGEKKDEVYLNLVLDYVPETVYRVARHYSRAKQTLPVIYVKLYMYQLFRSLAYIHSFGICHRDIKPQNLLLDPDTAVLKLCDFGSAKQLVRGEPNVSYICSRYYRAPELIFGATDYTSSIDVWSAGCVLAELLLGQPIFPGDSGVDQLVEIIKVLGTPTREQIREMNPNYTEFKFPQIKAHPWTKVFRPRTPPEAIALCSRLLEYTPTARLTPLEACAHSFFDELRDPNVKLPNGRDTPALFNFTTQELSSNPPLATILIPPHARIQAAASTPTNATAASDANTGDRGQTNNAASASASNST

[42] = target: Serine/threonine-protein kinase D1 (Homo sapiens, UniProt Q15139); assay: PKD1(PRD1LHY1) Takeda global kinase panel
[43] = target: Myosin light chain kinase 2, skeletal/cardiac muscle (Homo sapiens, UniProt Q9H1R3); assay: skMLCK(MYL2LHY1) Takeda global kinase panel
[44] = target: SRSF protein kinase 1 (Homo sapiens, UniProt Q96SB4); assay: SRPK1(SRP1IHRL) Takeda global kinase panel
Sequence of SRSF protein kinase 1 (Q96SB4 whole entry): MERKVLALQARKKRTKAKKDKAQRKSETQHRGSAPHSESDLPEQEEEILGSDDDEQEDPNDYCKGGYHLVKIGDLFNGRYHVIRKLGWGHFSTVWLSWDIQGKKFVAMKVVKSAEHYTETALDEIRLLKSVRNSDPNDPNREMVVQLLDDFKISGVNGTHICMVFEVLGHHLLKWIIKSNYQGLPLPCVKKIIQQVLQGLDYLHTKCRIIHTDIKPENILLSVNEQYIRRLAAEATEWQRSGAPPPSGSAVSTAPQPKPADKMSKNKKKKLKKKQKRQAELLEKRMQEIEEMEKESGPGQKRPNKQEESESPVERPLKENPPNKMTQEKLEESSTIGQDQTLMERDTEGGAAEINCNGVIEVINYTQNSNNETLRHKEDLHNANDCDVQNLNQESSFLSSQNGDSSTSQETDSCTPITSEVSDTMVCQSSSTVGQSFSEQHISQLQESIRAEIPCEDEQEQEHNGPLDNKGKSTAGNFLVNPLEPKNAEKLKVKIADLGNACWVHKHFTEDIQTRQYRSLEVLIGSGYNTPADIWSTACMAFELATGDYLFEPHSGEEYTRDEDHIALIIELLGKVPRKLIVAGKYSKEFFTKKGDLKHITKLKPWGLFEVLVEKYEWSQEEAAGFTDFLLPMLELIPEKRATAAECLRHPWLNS

[45] = target: Protein kinase C zeta type (Homo sapiens, UniProt Q05513); assay: PKCzeta(PRKZLGP1) Takeda global kinase panel

Compound: CN1C(=O)[C@@H](N2CCc3cn(Cc4ccccc4)nc3C2=O)COc2ccccc21 [TP-030-1]
IC50 [1]: 1000 nM
inhibition [2]: 0%
inhibition [3]: 27%
inhibition [4]: -4%
IC50 [5]: 1000 nM
IC50 [6]: 1000 nM
IC50 [7]: 1000 nM
IC50 [8]: 1000 nM
IC50 [9]: 1000 nM
IC50 [10]: 1000 nM
IC50 [11]: 1000 nM
IC50 [12]: 1000 nM
IC50 [13]: 1000 nM
IC50 [14]: 1000 nM
IC50 [15]: 1000 nM
IC50 [16]: 1000 nM
IC50 [17]: 1000 nM
IC50 [18]: 1000 nM
IC50 [19]: 1000 nM
IC50 [20]: 1000 nM
inhibition [21]: -3%
IC50 [22]: 1000 nM
IC50 [23]: 1000 nM
IC50 [24]: 1000 nM
IC50 [25]: 1000 nM
IC50 [26]: 1000 nM
inhibition [27]: -4%
IC50 [28]: 1000 nM
IC50 [29]: 1000 nM
IC50 [30]: 1000 nM
IC50 [31]: 1000 nM
IC50 [32]: 1000 nM
IC50 [33]: 1000 nM
IC50 [34]: 1000 nM
IC50 [35]: 1000 nM
IC50 [36]: 1000 nM
IC50 [37]: 1000 nM
inhibition [38]: 8%
IC50 [39]: 1000 nM
IC50 [40]: 1000 nM
IC50 [41]: 1000 nM
IC50 [42]: 1000 nM
IC50 [43]: 1000 nM
IC50 [44]: 1000 nM
IC50 [45]: 1000 nM

IC50 [1]: 1000 nM
inhibition [2]: 0%
inhibition [3]: 11%
inhibition [4]: 5%
IC50 [5]: 1000 nM
IC50 [6]: 1000 nM
IC50 [7]: 1000 nM
IC50 [8]: 1000 nM
IC50 [9]: 1000 nM
IC50 [10]: 1000 nM
IC50 [11]: 1000 nM
IC50 [12]: 1000 nM
IC50 [13]: 1000 nM
IC50 [14]: 1000 nM
IC50 [15]: 1000 nM
IC50 [16]: 1000 nM
IC50 [17]: 1000 nM
IC50 [18]: 1000 nM
IC50 [19]: 1000 nM
IC50 [20]: 1000 nM
inhibition [21]: 7%
IC50 [22]: 1000 nM
IC50 [23]: 1000 nM
IC50 [24]: 1000 nM
IC50 [25]: 1000 nM
IC50 [26]: 1000 nM
inhibition [27]: 7%
IC50 [28]: 1000 nM
IC50 [29]: 1000 nM
IC50 [30]: 1000 nM
IC50 [31]: 1000 nM
IC50 [32]: 1000 nM
IC50 [33]: 1000 nM
IC50 [34]: 1000 nM
IC50 [35]: 1000 nM
IC50 [36]: 1000 nM
IC50 [37]: 1000 nM
inhibition [38]: 12%
IC50 [39]: 1000 nM
IC50 [40]: 1000 nM
IC50 [41]: 1000 nM
IC50 [42]: 1000 nM
IC50 [43]: 1000 nM
IC50 [44]: 1000 nM
IC50 [45]: 1000 nM
Compound: CN1C(=O)[C@@H](N2CCc3cn(CC4CCS(=O)(=O)CC4)nc3C2=O)COc2ccccc21 [TP-030n]
